Test results from patent publication US20220372040A1, “METTL3 MODULATORS” (Accent Therapeutics, Inc., priority 2020, published 2022).
Read-outs that look alike come from different tables or passages of the source.

Legend:
METTL3/METTL14 = METTL3/METTL14 (Homo sapiens, UniProt Q86U44); test: METTL3-14 standard enzyme assay (3H-SAM flashplate scintillation); format: biochemical; conditions: METTL3/METTL14 2.5 nM, RNA 100 nM, 3H-SAM 100 nM, 30 min
In short: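 Radiometric methylation readout: biotinylated RNA substrate UCUGGACUAAA and 3H-SAM, each 100 nM final, reacted 30 min at ambient temperature with 2.5 nM enzyme complex after 5 min compound preincubation (HEPES pH 7.5 buffer, KCl, MgCl2, DTT). Excess unlabelled SAM (15 μM) stopped reactions before streptavidin flashplate capture.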

PRMT5-MEP50 = PRMT5-MEP50 (Homo sapiens, UniProt O14744); test: PRMT5 assay (3H-SAM flashplate scintillation); format: biochemical; conditions: PRMT5-MEP50 2.5 nM, histone H4 peptide 100 nM, 3H-SAM 250 nM, 60 min
PRMT5-MEP50, sequence (O14744 whole entry): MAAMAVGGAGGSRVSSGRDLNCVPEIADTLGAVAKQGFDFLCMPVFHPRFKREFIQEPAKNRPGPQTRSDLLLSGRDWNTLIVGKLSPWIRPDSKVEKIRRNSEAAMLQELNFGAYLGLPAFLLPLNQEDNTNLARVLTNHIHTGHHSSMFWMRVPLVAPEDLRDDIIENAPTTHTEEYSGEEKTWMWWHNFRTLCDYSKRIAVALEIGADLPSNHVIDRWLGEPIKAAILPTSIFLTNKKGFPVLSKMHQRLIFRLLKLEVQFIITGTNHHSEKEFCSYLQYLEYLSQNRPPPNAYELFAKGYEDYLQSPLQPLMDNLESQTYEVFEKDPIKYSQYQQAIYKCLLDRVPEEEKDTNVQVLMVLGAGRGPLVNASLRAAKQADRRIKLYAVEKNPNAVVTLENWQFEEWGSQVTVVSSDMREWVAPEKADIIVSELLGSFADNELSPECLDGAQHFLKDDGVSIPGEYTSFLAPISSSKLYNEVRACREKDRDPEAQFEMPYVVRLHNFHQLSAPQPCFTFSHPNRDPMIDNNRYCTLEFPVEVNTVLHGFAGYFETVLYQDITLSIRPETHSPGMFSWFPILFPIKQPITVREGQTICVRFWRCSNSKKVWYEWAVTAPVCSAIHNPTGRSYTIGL
PRMT5-MEP50, sequence (Q9BQA1 whole entry partner): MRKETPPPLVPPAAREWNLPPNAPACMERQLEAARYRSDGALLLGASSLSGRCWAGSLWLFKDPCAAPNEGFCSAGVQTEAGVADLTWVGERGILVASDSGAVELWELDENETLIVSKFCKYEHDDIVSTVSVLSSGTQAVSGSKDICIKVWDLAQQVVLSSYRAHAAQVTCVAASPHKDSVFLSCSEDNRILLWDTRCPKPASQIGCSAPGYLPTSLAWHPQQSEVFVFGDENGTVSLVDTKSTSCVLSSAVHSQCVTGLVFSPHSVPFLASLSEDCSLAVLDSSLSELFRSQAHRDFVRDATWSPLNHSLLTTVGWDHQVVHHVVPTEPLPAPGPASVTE
In short: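 Radiometric methyltransferase read-out: after 60 min reaction, excess unlabelled SAM (15 μM) stops turnover and biotinylated H4 peptide (100 nM) carrying 3H-methyl from 250 nM 3H-SAM is captured on streptavidin flashplates (2 h, 25° C) for scintillation counting. Enzyme, 2.5 nM PRMT5-MEP50, was preincubated 5 min with compound in pH 8.0 Tris buffer with DTT and Tween.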

METTL1/WDR4 = METTL1/WDR4 (Homo sapiens, UniProt Q9UBP6); test: METTL1 assay (3H-SAM flashplate scintillation); format: biochemical
METTL1/WDR4, sequence (Q9UBP6 whole entry, species assumed): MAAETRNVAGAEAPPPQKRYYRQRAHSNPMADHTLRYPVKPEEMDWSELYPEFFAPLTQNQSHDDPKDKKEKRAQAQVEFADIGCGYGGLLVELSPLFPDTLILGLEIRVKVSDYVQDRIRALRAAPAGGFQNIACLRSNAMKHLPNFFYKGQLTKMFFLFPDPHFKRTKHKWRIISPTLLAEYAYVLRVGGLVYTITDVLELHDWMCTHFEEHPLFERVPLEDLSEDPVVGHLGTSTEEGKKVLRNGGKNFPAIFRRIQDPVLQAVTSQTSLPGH
METTL1/WDR4, sequence (P57081 whole entry partner, species assumed): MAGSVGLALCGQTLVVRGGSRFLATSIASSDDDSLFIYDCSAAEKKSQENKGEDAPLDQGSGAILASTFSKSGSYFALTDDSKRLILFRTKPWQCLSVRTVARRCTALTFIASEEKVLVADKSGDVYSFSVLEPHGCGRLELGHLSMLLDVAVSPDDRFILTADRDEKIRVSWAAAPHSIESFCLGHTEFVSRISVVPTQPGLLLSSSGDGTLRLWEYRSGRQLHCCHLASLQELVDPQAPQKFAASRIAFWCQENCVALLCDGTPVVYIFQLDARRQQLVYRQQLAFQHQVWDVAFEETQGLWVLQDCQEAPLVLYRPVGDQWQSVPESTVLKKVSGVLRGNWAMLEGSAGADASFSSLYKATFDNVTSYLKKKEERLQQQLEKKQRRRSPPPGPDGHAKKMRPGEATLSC
In short: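 Radiometric methyltransfer by METTL1/WDR4 (6.25 nM f.c., 5 min preincubation) at ambient temperature in HEPES pH 7.5, KCl, MgCl2, DTT; started with 25 nM 3′-biotinylated RNA and 60 nM 3H-SAM, run 20 min, quenched with 15 μM cold SAM. Product captured on streptavidin flashplates (2 h, 25° C), counted by scintillation.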

[1] = test system: m^6 A in cellular mRNA of MOLM-13 cells; test: m^6 A-mRNA LC-MS/MS assay (m^6 A cellular assay); format: cell-based; conditions: Homo sapiens, 24 hours incubation, LC-MS/MS of m^6 A/A in mRNA
Protocol: m^6 A-mRNA LC-MS/MS Assay
5×10^6 MOLM-13 (DSMZ) cells were seeded into 10 cm dishes in RPMI 1640 media containing 10% fetal bovine serum and placed in a humidified tissue culture incubator at 37° C. overnight. Compounds were resuspended in 100% DMSO and dosed into each dish at a fixed concentration to comprise an 8-point dose response with a 4-fold serial dilution ranging from 25 μM to 1.5 nM in 0.25% DMSO final and allowed to incubate for 24 hours in a humidified tissue culture incubator at 37° C. Cells were harvested by centrifugation followed by mRNA extraction using DTRECT Dynabeads mRNA DTRECT kit (Life Technologies). mRNA was quantified on NanoDrop spectrophotometer (Thermo Fisher Scientific) and digested into single nucleosides using Nucleoside Digestion Mix (New England Biolabs). Nucleosides are quantified with retention time on a BEH […] column (Waters) and the nucleoside-to-base ion mass transition of 282.1-150.1 (m^6 A) and 268-136 (A) on an API 6500+ triple quadrupole mass spectrometer. Quantification is performed in comparison with the standard curve, obtained from pure nucleoside standards (Selleck Chemicals) running with the same batch of samples. Percentage m^6 A in cellular mRNA is calculated as 100*(m^6 A/A).

MOLM-13 cells [2] = test: MOLM-13 48 Hour cell proliferation assay (Cell Titer-Glo); format: cell-based; conditions: Homo sapiens
Protocol: MOLM-13 48 Hour Cell Proliferation Assay
MOLM-13 (DSMZ) cells were seeded at 1000 cells per well in a volume of 44 μL in a Falcon 384-well tissue culture treated clear bottom microplate in RPMI 1640 media containing 10% fetal bovine serum using a Multidrop Combi (ThermoFisher Scientific). Cells were incubated overnight at 37° C. in a humidified tissue culture incubator. The Mosquito® HTS Liquid Handler was used to make a compound/media intermediate plate by aliquoting […] of compound from the initial compound dilution plate (concentrations ranging from 10.0 mM to 38.0 nM in 100% DMSO) into a V bottom 384-well screen matrix plate containing 49 µL of media containing the appropriate serum (50-fold dilution, 2% DMSO). The Apricot liquid handling system was used to transfer […] compounds from the intermediate plate into the Falcon 384-well tissue culture plate containing 44 μL cells (10-point, 4-fold dilution spanning concentrations 25.0 μM to […], 0.25% DMSO final), and placed in a humidified tissue culture incubator at 37° C. After 48 hours, 25 μL of Cell Titer-Glo reagent (Promega) was added to each well using a Multidrop Combi. The plate was protected from light and placed on an IKA plate shaker for at 300 rpm for 10 minutes at room temperature. The plate was read on an EnVision plate reader (Perkin Elmer) using the Ultra Sensitive Luminescence protocol. Data analysis was performed by normalizing the raw luminescence units to an average of the positive control values for staurosporine (100% cell death) and the negative control values for DMSO (0% cell death). An IC50 was calculated using a 4-parameter logistic nonlinear regression model in GraphPad Prism.

MOLM-13 cells [3] = test: MOLM-13 96 Hour cell proliferation assay (Cell Titer-Glo); format: cell-based; conditions: Homo sapiens
Protocol: MOLM-13 96 Hour Cell Proliferation Assay
MOLM-13 (DSMZ) cells were seeded at 600 cells per well in a volume of 44 μL in a Greiner Bio-One CELLSTAR™ 384 Well Polystyrene Cell Culture clear bottom microplate in RPMI 1640 media containing 10% fetal bovine serum using a Multidrop Combi (ThermoFisher Scientific). Cells were incubated overnight at 37° C. in a humidified tissue culture incubator. To prevent evaporation or to reduce edge effect, add 50 μL or more H2O to an empty plate, cover, and place on top of the cell plates. The Mosquito® HTS Liquid Handler was used to make a compound/media intermediate plate by aliquoting 1 μL of compound from the initial compound dilution plate (concentrations ranging from 10.0 mM to 38.0 nM in 100% DMSO) into Bio-One 384-well polypropylene conical bottom microplate containing 49 μL of media containing the appropriate serum (50-fold dilution, 2% DMSO, compound concentrations ranging from 200.0 μM and […]). The Apricot liquid handling system was used to transfer 6.2 μL compounds from the intermediate plate into the seeding plate containing 44 μL cells (8-fold dilution spanning concentrations 25.0 μM to […], 0.25% DMSO final), and placed in a humidified tissue culture incubator at 37° C. After 96 hours, 25 μL of Cell Titer-Glo reagent (Promega) was added to each well using an Integra liquid handling system. The plate was protected from light using TopSeal-A (Black) film over the entire plate, added White Bottom seal film on the bottom of the entire plate for a better reading on the Envision, and placed on an IKA plate shaker for at 300 rpm for 10 minutes at room temperature. The plate was read on an EnVision plate reader (Perkin Elmer) using the Ultra Sensitive Luminescence protocol. Data analysis was performed by normalizing the raw luminescence units to an average of the positive control values for staurosporine (100% cell death) and the negative control values for DMSO (0% cell death). An IC50 was calculated using a 4-parameter logistic nonlinear regression model in GraphPad Prism.

METTL16 = biological target: T1, METTL16 (Homo sapiens, UniProt Q86W50); test: METTL16 assay (3H-SAM flashplate scintillation); format: biochemical; conditions: METTL16 100 nM, RNA 50 nM, 3H-SAM 200 nM, SAM 800 nM, 20 min
T1 sequence (Q86W50 1-562): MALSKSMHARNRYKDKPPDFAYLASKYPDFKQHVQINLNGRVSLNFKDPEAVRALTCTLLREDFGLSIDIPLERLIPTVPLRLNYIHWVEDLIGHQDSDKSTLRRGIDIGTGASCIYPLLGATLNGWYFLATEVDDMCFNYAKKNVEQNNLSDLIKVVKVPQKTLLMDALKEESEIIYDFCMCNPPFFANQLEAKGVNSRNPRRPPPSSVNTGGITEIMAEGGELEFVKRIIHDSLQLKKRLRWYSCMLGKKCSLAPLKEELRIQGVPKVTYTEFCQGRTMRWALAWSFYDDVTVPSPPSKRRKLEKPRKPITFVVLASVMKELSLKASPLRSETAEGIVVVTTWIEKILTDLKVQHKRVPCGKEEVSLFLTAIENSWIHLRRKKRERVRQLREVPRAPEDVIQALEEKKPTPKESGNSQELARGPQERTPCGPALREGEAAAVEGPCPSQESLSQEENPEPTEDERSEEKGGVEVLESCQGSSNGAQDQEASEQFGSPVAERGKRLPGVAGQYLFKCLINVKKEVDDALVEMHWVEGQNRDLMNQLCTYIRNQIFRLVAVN
In short: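 Radiometric methyltransferase reaction at ambient temperature in 20 mM HEPES pH 7.5, 50 mM KCl, 1 mM DTT, with 100 nM enzyme preincubated 5 min with compound. It was started with 50 nM 3′-biotinylated RNA, 200 nM 3H-SAM plus 800 nM cold SAM, run 20 min, then quenched with excess cold SAM. Product was captured on streptavidin flashplates and scintillation-counted.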

[4] = METTL1/WDR4 6.25 nM, RNA 25 nM, 3H-SAM 60 nM, 20 min, read-out: METTL1 IC50

METTL3/METTL14, sequence (Q86U44 whole entry, species assumed): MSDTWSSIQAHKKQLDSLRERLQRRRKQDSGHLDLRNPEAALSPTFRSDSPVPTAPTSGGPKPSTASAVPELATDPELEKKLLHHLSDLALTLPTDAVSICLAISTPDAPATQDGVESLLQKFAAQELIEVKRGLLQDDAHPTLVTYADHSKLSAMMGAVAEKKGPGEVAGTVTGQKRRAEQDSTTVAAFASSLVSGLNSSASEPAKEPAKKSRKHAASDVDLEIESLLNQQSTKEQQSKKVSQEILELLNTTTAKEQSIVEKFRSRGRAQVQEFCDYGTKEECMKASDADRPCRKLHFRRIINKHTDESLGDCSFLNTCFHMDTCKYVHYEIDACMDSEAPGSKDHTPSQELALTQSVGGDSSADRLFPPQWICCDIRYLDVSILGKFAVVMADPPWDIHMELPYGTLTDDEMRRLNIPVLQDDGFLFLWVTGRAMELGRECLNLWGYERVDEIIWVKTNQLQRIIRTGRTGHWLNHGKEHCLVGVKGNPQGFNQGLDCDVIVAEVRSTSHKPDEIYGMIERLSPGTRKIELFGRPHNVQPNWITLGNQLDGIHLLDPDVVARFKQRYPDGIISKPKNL
METTL3/METTL14, sequence (Q9HCE5 whole entry partner, species assumed): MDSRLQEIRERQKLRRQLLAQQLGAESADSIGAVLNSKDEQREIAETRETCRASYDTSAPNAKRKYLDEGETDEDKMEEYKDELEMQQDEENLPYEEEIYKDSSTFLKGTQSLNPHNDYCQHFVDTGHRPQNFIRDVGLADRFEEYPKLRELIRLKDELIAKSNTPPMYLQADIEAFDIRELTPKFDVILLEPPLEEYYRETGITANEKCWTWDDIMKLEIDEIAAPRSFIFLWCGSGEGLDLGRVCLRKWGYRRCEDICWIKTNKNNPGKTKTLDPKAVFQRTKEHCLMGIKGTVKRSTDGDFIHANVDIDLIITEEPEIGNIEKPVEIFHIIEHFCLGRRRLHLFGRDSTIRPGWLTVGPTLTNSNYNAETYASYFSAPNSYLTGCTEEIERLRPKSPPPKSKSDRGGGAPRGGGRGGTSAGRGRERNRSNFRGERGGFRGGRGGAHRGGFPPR

Row | SMILES | IC50 (METTL3/METTL14) [nM] | IC50 (PRMT5-MEP50) [nM] | IC50 (METTL1/WDR4) [nM] | IC50 [1] [nM] | IC50 (MOLM-13 cells [2]) [nM] | IC50 (METTL1/WDR4; [4]) [nM] | IC50 (MOLM-13 cells [3]) [nM] | IC50 (METTL16) [nM]
1 | CNc1ccc2ccc(CCc3cncc(-n4cc(-c5ccn(C)n5)c5c(N)ncnc54)c3)cc2n1 [Compound I-1, 7-(2-(5-(4-amino-5-(1-methyl-1H-pyrazol-3-yl)-7H-pyrrolo[2,3-d]pyrimidin-7-yl)pyridin-3-yl)ethyl)-N-methylquinolin-2-amine] | < 10 | > 1000 | > 1000 | < 1000 | < 1000 | – | – | –
2 | CNc1ccc2ccc(OCc3cc(CO)cc(-n4ccc5c(N)ncnc54)c3)cc2n1 [Compound I-6] | < 10 | > 1000 | – | – | ≥ 10000 | > 1000 | 1000 to 10000 | –
3 | CCc1cc(NCCOC)c2ccc(OCc3cncc(-c4c[nH]c5c(N)ncnc45)c3)cc2n1 [Compound I-7] | < 10 | > 1000 | – | – | ≥ 10000 | > 1000 | – | –
4 | CNc1ccc2ccc(OCc3cc(CO)cc(-c4c[nH]c5c(N)ncnc45)c3)cc2n1 [Compound I-10] | < 10 | > 1000 | – | ≥ 10000 | ≥ 10000 | > 1000 | – | –
5 | CCc1cc(N)c2ccc(OCc3cncc(-n4cc(C5CCCC5)c5c(N)ncnc54)c3)cc2n1 [Compound I-11] | < 10 | > 1000 | – | 1000 to 10000 | < 1000 | > 1000 | – | –
6 | CC(C)c1cc(N)c2ccc(OCc3cncc(-n4ccc5c(N)ncnc54)c3)cc2n1 [Compound I-12] | < 10 | > 1000 | – | – | 1000 to 10000 | > 1000 | 1000 to 10000 | –
7 | CNc1ccc2ccc(OCc3cncc(-n4ccc5c(N)ncnc54)n3)cc2n1 [Compound I-14] | < 10 | > 1000 | – | 1000 to 10000 | 1000 to 10000 | > 1000 | – | –
8 | CCc1cc(NCCN(C)C)c2ccc(OCc3cncc(-n4ccc5c(N)ncnc54)c3)cc2n1 [Compound I-15] | < 10 | > 1000 | – | – | 1000 to 10000 | > 1000 | – | –
9 | CCc1cc(NCCOC)c2ccc(OCc3cncc(-n4ccc5c(N)ncnc54)c3)cc2n1 [Compound I-16] | < 10 | > 1000 | – | 1000 to 10000 | 1000 to 10000 | > 1000 | – | –
10 | CNc1ccc2ccc(OCc3cncc(-n4cc(C)c5c(N)ncnc54)c3)cc2n1 [Compound I-17] | < 10 | > 1000 | – | ≥ 10000 | < 1000 | > 1000 | – | –
11 | Cc1cc(NCCN(C)C)c2ccc(OCc3cncc(-n4cc(Cl)c5c(N)ncnc54)c3)cc2n1 [Compound I-42] | 10 to 100 | > 1000 | – | – | < 1000 | – | – | > 1000
12 | CN(C)CCNc1cc(C2CCC2)nc2cc(OCc3cncc(-n4ccc5c(N)ncnc54)c3)ccc12 [Compound I-92] | < 10 | > 1000 | – | 1000 to 10000 | – | > 1000 | < 1000 | –
13 | CC(C)c1cc(N2CCNCC2)c2ccc(OCc3cncc(-n4ccc5c(N)ncnc54)c3)cc2n1 [Compound I-95] | < 10 | > 1000 | – | 1000 to 10000 | – | > 1000 | < 1000 | –
14 | Cn1ccc(-c2cn(-c3cncc(CCc4ccc5ccc(N6CCC6)nc5c4)c3)c3ncnc(N)c23)n1 [Compound I-104] | < 10 | > 1000 | – | < 1000 | – | – | < 1000 | –
15 | CCNc1ccc2ccc(CCc3cncc(-n4cc(-c5ccn(C)n5)c5c(N)ncnc54)c3)cc2n1 [Compound I-106] | < 10 | > 1000 | – | < 1000 | – | – | < 1000 | –
16 | CCc1cc(N2CCOCC2)c2ccc(OCc3cncc(-n4ccc5c(N)ncnc54)c3)cc2n1 [Compound I-108] | < 10 | > 1000 | – | 1000 to 10000 | – | – | 1000 to 10000 | –
17 | CNc1cc(CCCN2CCOCC2)c2ccc(OCc3cncc(-n4ccc5c(N)ncnc54)c3)cc2n1 [Compound I-233] | < 10 | > 1000 | – | ≥ 10000 | – | – | 1000 to 10000 | –
